{"source": "patent US20230313199A1", "about": "“TARGET FOR MODULATING BODY MASS” (Massachusetts Institute of Technology, priority 2020, published 2023)", "key": {"[1]": {"target": "T1, MFSD7C-SERCA2b co-localization (Homo sapiens, UniProt Q9UPI3)", "T1 construct": "host or cells: THP-1 cells", "assay": "Confocal co-localization of MFSD7C and SERCA2b in THP-1 cells", "type": "cell-based", "settings": "40 μM heme 1 hour, 0.89 without heme", "experimental": "FIGS. 16A-16F show Co-localization of MFSD7C and SERCA2b. […] Shown are representative images of THP-1 cells stained for MFSD7C (red), SERCA2b (green), nuclei (blue) and merged image. […] THP-1 cells were not treated or treated with 40 μM of heme for 1 hour and then stained for MFSD7C, SERCA2b and nuclei as in (FIG. 16A). Co-localization between MFSD7C and SERCA2b was quantified. Shown are representative merged images (FIG. 16B) and comparison of Pearson's correlation coefficients values with or without heme treatment (FIG. 16C) (in FIG. 16C, n=7 biologically independent samples). P-values were calculated using unpaired t-test (***p<0.05). […] THP-1 cells were stained for MFSD7C (red), ER (green), mitochondria (blue), and DNA (grey). Shown are representative single and merged images (FIG. 16D). Enlarged image of the boxed area is shown in the last panel (bottom-right). Pearson's rank correlation values between the indicated comparisons are shown (FIG. 16E). (n=3 biologically independent samples). […] THP-1 cells were incubated with FPT for 6 hours, washed, treated with or without 4 μM thapsingargin for 2 hours. The cells were washed and reseeded in poly-lysine coated glass bottom dishes. After cells attached to the glass, medium containing 40 μM heme was added. Cells in the same field were imaged immediately (0 min) and again 1 hour later. […]"}, "[2]": {"target": "T2, endogenous MFSD7C and ATP5h (Mus musculus, UniProt Q91X85)", "T2 construct": "Co-IP and immunoblotting analysis of endogenous MFSD7C with ATP5h, SERCA2b and HMOX1 in bone marrow-derived macrophages; endogenous in cells; host or cells: bone marrow-derived macrophages from Mfsd7c fl/fl C57BL/6 mice", "assay": "Co-IP of endogenous MFSD7C and ATP5h in bone marrow-derived macrophages", "type": "cell-based", "settings": "heme treatment", "experimental": "NTD was incubated with heme and run on Superdex 75 gel filtration column. The flow through was measured for absorbance at 230 nm (gray), 380 nm (blue), and 415 nm (green). Absorbance intensity was normalized to maximum value. […] Heme (100 μM) absorption was set to zero. […] Wildtype (WT) and mutant (Mut) peptide sequences are shown. […] Shown are representative data from five separate experiments. […] Shown are immunoblots of MFSD7C, ATP5h, SERCA2b, and HMOX1 on whole lysates or immunoblots of MFSD7C on anti-ATP5h, anti-SERCA2b and anti-HMOX1 immunoprecipitates. Representative data from one from three experiments are shown. […] Shown are representative data from three separate experiments. WCE: whole cell extract, Sup: supernatant, Mito: 10,000 g mitochondrial fraction. […] THP-1 cells were stained with MitoTracker (green), fixed and permeabilized, and then stained with rabbit polyclonal antibody specific for the C-terminus of MFSD7C, followed with Alexa Fluor® 594-labelled goat anti-rabbit antibody (red). Nuclei were labeled using DAPI (blue). […]\nDifferentiation of bone marrow-derived macrophage (BMDM). […] Cells were resuspended in DMEM media containing 10% FBS, 2 mM L-glutamine, 2 mM pyruvate, non-essential amino acids (100 μM each), 0.55 mM 2-mercaptoethanol, penicillin/streptomycin), passed through a 40 μm Falcon cell strainer (VWR) to remove large aggregates, and counted. […]"}, "[3]": {"target": "T3, Mutant NTD (all five histidine residues in the HP repeats mutated to alanine) (Homo sapiens, UniProt Q9UPI3, H30A/H36A/H48A/H54A/H66A)", "T3 construct": "Plasmid harboring GST-His-tag-SUMO-NTD (amino acids 1-84); GST-His-tag-SUMO (N, cleaved yes); made in house; host or cells: Escherichia coli", "T3 sequence (Q9UPI3 1-84 H30A/H36A/H48A/H54A/H66A)": "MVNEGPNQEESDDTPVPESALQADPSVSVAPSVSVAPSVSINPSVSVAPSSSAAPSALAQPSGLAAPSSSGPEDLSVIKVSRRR", "assay": "Heme absorbance-shift assay with mutant NTD", "type": "binding"}, "[4]": {"target": "T4, interaction between HMOX1 and MFSD7C (Mus musculus, UniProt Q91X85)", "T4 construct": "expressed in transfected cells; host or cells: 293FT cells", "T4 sequence (Q91X85 whole entry)": "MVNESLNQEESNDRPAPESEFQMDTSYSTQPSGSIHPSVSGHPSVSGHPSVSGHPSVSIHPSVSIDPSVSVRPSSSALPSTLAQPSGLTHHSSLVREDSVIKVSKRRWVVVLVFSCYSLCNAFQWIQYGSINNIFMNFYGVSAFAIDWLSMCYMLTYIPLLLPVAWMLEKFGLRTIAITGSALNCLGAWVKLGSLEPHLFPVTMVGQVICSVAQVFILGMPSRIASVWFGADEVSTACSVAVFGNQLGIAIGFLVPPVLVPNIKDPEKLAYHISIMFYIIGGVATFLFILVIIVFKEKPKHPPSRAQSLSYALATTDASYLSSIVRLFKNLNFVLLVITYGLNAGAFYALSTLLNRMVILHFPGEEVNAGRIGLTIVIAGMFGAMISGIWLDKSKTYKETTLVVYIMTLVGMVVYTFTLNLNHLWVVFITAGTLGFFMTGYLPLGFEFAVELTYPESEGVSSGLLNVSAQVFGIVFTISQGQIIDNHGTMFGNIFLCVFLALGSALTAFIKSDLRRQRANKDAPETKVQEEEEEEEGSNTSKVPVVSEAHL", "T4 sequence (P14901 whole entry partner)": "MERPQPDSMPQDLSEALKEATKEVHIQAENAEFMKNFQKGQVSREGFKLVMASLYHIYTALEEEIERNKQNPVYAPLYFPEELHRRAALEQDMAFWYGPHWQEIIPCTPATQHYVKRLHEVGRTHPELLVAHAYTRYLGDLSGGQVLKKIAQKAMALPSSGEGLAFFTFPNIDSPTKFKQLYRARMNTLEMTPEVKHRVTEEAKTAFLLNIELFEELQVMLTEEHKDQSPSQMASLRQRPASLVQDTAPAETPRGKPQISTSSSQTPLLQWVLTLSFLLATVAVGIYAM", "assay": "Co-IP of HA-tagged MFSD7C with FLAG-tagged HMOX1 in transfected 293FT cells", "type": "cell-based, murine", "settings": "10 μM or 40 μM heme for one hour before cell lysis", "experimental": "Co-transfection and immunoprecipitation. For co-IP, HA-tagged MFSD7C was co-transfected with FLAG-tagged HMOX1 (Origene Catalog No. MR203944), CYC1, COX4I1, NDUFA4, ATP5h, ATP5c1 into 293FT cells using TransIT®-LT1 Transfection Reagent (Mirus). Thirty-six hours after transfection, the cells were lysed using cold Lysis Buffer containing 20 mM Tris-HCl (pH 7.4), 150 mM NaCl, 0.1% NP-40, 10% glycerol, proteinase inhibitor (Sigma Catalog No. 4693132001), and phosphatase inhibitors (Sigma Catalog No. 4906845001). The clear supernatants from the lysate were incubated with M2-magnetic beads conjugated with anti-FLAG antibody (Sigma Catalog No. M8823) for 2 hours at 4° C. Then the beads were washed twice and eluted by the 3× FLAG peptides (Sigma Catalog No. F4799).\nTo determine the effect of heme on MFSD7C interactions with ETC components, HMOX1 or SERCA2b, 293FT cells were transiently transfected with HA-tagged murine MFSD7C and FLAG-tagged murine CYC1, NDUFA4, COX4i1, ATP5h, ATP5c1, HMOX1 or SERCA2b. 35 hrs later, co-transfected cells were incubated with DMSO (vehicle) or 10 μM or 40 μM of heme for one hour before lysis. Cell lysates were precipitated with anti-HA antibody, eluted with HA peptide, further precipitated with anti-FLAG antibody, eluted with FLAG peptide, and then subjected to Western blotting with anti-HA and anti-FLAG antibodies. […]"}}, "data": [{"smiles": "C=CC1=C(C)c2cc3[n-]c(cc4[n-]c(cc5nc(cc1n2)C(C)=C5C=C)c(C)c4CCC(=O)O)c(CCC(=O)O)c3C.[Fe+2]", "note": "[heme]", "values": [{"measurement": "Pearson's correlation coefficient value of MFSD7C/SERCA2b co-localization", "setting": "[1]", "result": 0.67}, {"measurement": "interactions between endogenous MFSD7C and ATP5h (co-IP)", "setting": "[2]", "result": "disrupted"}, {"measurement": "absorbance shift of heme", "setting": "[3]", "result": "abolished"}, {"measurement": "interaction between HMOX1 and MFSD7C (co-IP)", "setting": "[4]", "result": "enhanced"}]}]}
